Measurements from ChEMBL document CHEMBL3885881, “DrugMatrix”.

Species: Rattus norvegicus
Assay: DrugMatrix - Regimen: Daily Repeat
Type: toxicity, organism-based, Sprague-Dawley
Design: regimen Daily Repeat, gender Male, age 6-8 weeks
Conditions: in vivo, po, route oral GAVAGE, […]; for ABSOLUTE BASOPHIL / ABSOLUTE EOSINOPHIL / ABSOLUTE LYMPHOCYTE / ABSOLUTE MONOCYTE / ABSOLUTE SEGMENTED NEUTROPHIL / BASOPHIL / EOSINOPHIL / ERYTHROCYTE COUNT / HEMATOCRIT / HEMOGLOBIN / LEUKOCYTE COUNT / LYMPHOCYTE / MEAN CORPUSCULAR HEMOGLOBIN / MEAN CORPUSCULAR HEMOGLOBIN CONCENTRATION / MEAN CORPUSCULAR VOLUME / MONOCYTE / NEUTROPHIL / NUCLEATED RED BLOOD CELLS / PLATELET COUNT: tissue Blood; for ALANINE AMINOTRANSFERASE / ALBUMIN / ALKALINE PHOSPHATASE / ASPARTATE AMINOTRANSFERASE / BLOOD UREA NITROGEN / CARBON DIOXIDE / CHLORIDE / CHOLESTEROL / CREATINE PHOSPHOKINASE / CREATININE / GLUCOSE / LACTATE DEHYDROGENASE / LIPASE / PHOSPHORUS / POTASSIUM / SODIUM / TOTAL BILIRUBIN / TOTAL PROTEIN / URIC ACID: tissue Plasma
[1] = 18 mg/kg, 72 h, dose level High, time 3 day
[2] = 18 mg/kg, 120 h, dose level High, time 5 day
[3] = 72 h, dose 0.28 mg/Kg, dose level Low, time 3 day
[4] = 120 h, dose 0.28 mg/Kg, dose level Low, time 5 day

## CC(C(=O)O)c1ccc(CC2CCCC2=O)cc1 (configuration not stated) [LOXOPROFEN]
[1]
  ABSOLUTE BASOPHIL: 0 CELLS/uL
  ABSOLUTE EOSINOPHIL: 0 CELLS/uL
  ABSOLUTE LYMPHOCYTE: 12885.33 CELLS/uL
  ABSOLUTE MONOCYTE: 42.67 CELLS/uL
  ABSOLUTE SEGMENTED NEUTROPHIL: 1338.67 CELLS/uL
  BASOPHIL: 0%
  EOSINOPHIL: 0%
  ERYTHROCYTE COUNT: 5.2 x10E6/uL
  HEMATOCRIT: 32.2%
  HEMOGLOBIN: 13.03 G/DL
  LEUKOCYTE COUNT: 14.27 x10E3/uL
  LYMPHOCYTE: 90.67%
  MEAN CORPUSCULAR HEMOGLOBIN: 25.1 pg
  MEAN CORPUSCULAR HEMOGLOBIN CONCENTRATION: 40.53 G/DL
  MEAN CORPUSCULAR VOLUME: 61.93 fL
  MONOCYTE: 0.33%
  NEUTROPHIL: 9%
  NUCLEATED RED BLOOD CELLS: 0 /100WBC
  PLATELET COUNT: 1130.33 x10E3/uL
  ALANINE AMINOTRANSFERASE: 76.67 u/L
  ALBUMIN: 4.03 G/DL
  ALKALINE PHOSPHATASE: 346.33 u/L
  ASPARTATE AMINOTRANSFERASE: 93 u/L
  BLOOD UREA NITROGEN: 15.67 mg/dL
  CARBON DIOXIDE: 30.33 mmol/L
  CHLORIDE: 102.33 MEQ/L
  CHOLESTEROL: 83 mg/dL
  CREATINE PHOSPHOKINASE: 423.33 u/L
  CREATININE: 0.36 mg/dL
  GLUCOSE: 148.67 mg/dL
  LACTATE DEHYDROGENASE: 236.33 u/L
  LIPASE: 13 u/L
  PHOSPHORUS: 11.07 mg/dL
  POTASSIUM: 6.41 MEQ/L
  SODIUM: 143.6 MEQ/L
  TOTAL BILIRUBIN: 0.27 mg/dL
  TOTAL PROTEIN: 5.63 G/DL
  URIC ACID: 1.1 mg/dL
[2]
  ABSOLUTE BASOPHIL: 0 CELLS/uL
  ABSOLUTE EOSINOPHIL: 118 CELLS/uL
  ABSOLUTE LYMPHOCYTE: 14441.67 CELLS/uL
  ABSOLUTE MONOCYTE: 168.67 CELLS/uL
  ABSOLUTE SEGMENTED NEUTROPHIL: 1438.33 CELLS/uL
  BASOPHIL: 0%
  EOSINOPHIL: 1%
  ERYTHROCYTE COUNT: 5.58 x10E6/uL
  HEMATOCRIT: 34.33%
  HEMOGLOBIN: 13.8 G/DL
  LEUKOCYTE COUNT: 16.17 x10E3/uL
  LYMPHOCYTE: 90%
  MEAN CORPUSCULAR HEMOGLOBIN: 24.77 pg
  MEAN CORPUSCULAR HEMOGLOBIN CONCENTRATION: 40.2 G/DL
  MEAN CORPUSCULAR VOLUME: 61.53 fL
  MONOCYTE: 1%
  NEUTROPHIL: 8%
  NUCLEATED RED BLOOD CELLS: 0 /100WBC
  PLATELET COUNT: 1237 x10E3/uL
  ALANINE AMINOTRANSFERASE: 60.67 u/L
  ALBUMIN: 4.13 G/DL
  ALKALINE PHOSPHATASE: 356.33 u/L
  ASPARTATE AMINOTRANSFERASE: 101 u/L
  BLOOD UREA NITROGEN: 17 mg/dL
  CARBON DIOXIDE: 27.67 mmol/L
  CHLORIDE: 103.33 MEQ/L
  CHOLESTEROL: 67.67 mg/dL
  CREATINE PHOSPHOKINASE: 434 u/L
  CREATININE: 0.18 mg/dL
  GLUCOSE: 141 mg/dL
  LACTATE DEHYDROGENASE: 660 u/L
  LIPASE: 10.67 u/L
  PHOSPHORUS: 11.17 mg/dL
  POTASSIUM: 5.74 MEQ/L
  SODIUM: 144.53 MEQ/L
  TOTAL BILIRUBIN: 0.23 mg/dL
  TOTAL PROTEIN: 5.77 G/DL
  URIC ACID: 1.33 mg/dL
[3]
  ABSOLUTE BASOPHIL: 0 CELLS/uL
  ABSOLUTE EOSINOPHIL: 0 CELLS/uL
  ABSOLUTE LYMPHOCYTE: 8216 CELLS/uL
  ABSOLUTE MONOCYTE: 105.67 CELLS/uL
  ABSOLUTE SEGMENTED NEUTROPHIL: 1111.67 CELLS/uL
  BASOPHIL: 0%
  EOSINOPHIL: 0%
  ERYTHROCYTE COUNT: 5.18 x10E6/uL
  HEMATOCRIT: 32.3%
  HEMOGLOBIN: 13.07 G/DL
  LEUKOCYTE COUNT: 9.43 x10E3/uL
  LYMPHOCYTE: 87.33%
  MEAN CORPUSCULAR HEMOGLOBIN: 25.23 pg
  MEAN CORPUSCULAR HEMOGLOBIN CONCENTRATION: 40.47 G/DL
  MEAN CORPUSCULAR VOLUME: 62.37 fL
  MONOCYTE: 1%
  NEUTROPHIL: 11.67%
  NUCLEATED RED BLOOD CELLS: 0 /100WBC
  PLATELET COUNT: 1232.67 x10E3/uL
  ALANINE AMINOTRANSFERASE: 78.33 u/L
  ALBUMIN: 4 G/DL
  ALKALINE PHOSPHATASE: 425 u/L
  ASPARTATE AMINOTRANSFERASE: 95.33 u/L
  BLOOD UREA NITROGEN: 17 mg/dL
  CARBON DIOXIDE: 30 mmol/L
  CHLORIDE: 101.33 MEQ/L
  CHOLESTEROL: 69 mg/dL
  CREATINE PHOSPHOKINASE: 495.67 u/L
  CREATININE: 0.2 mg/dL
  GLUCOSE: 186.33 mg/dL
  LACTATE DEHYDROGENASE: 214.33 u/L
  LIPASE: 8.67 u/L
  PHOSPHORUS: 12.6 mg/dL
  POTASSIUM: 6.25 MEQ/L
  SODIUM: 143.63 MEQ/L
  TOTAL BILIRUBIN: 0.17 mg/dL
  TOTAL PROTEIN: 5.5 G/DL
  URIC ACID: 1.43 mg/dL
[4]
  ABSOLUTE BASOPHIL: 0 CELLS/uL
  ABSOLUTE EOSINOPHIL: 43.33 CELLS/uL
  ABSOLUTE LYMPHOCYTE: 10902.67 CELLS/uL
  ABSOLUTE MONOCYTE: 142 CELLS/uL
  ABSOLUTE SEGMENTED NEUTROPHIL: 678.67 CELLS/uL
  BASOPHIL: 0%
  EOSINOPHIL: 0.33%
  ERYTHROCYTE COUNT: 5.61 x10E6/uL
  HEMATOCRIT: 35.07%
  HEMOGLOBIN: 14.17 G/DL
  LEUKOCYTE COUNT: 11.77 x10E3/uL
  LYMPHOCYTE: 93%
  MEAN CORPUSCULAR HEMOGLOBIN: 25.23 pg
  MEAN CORPUSCULAR HEMOGLOBIN CONCENTRATION: 40.4 G/DL
  MEAN CORPUSCULAR VOLUME: 62.43 fL
  MONOCYTE: 1.33%
  NEUTROPHIL: 5.33%
  NUCLEATED RED BLOOD CELLS: 0 /100WBC
  PLATELET COUNT: 984.33 x10E3/uL
  ALANINE AMINOTRANSFERASE: 57 u/L
  ALBUMIN: 4.3 G/DL
  ALKALINE PHOSPHATASE: 291 u/L
  ASPARTATE AMINOTRANSFERASE: 85.33 u/L
  BLOOD UREA NITROGEN: 18 mg/dL
  CARBON DIOXIDE: 26.67 mmol/L
  CHLORIDE: 103.67 MEQ/L
  CHOLESTEROL: 68.67 mg/dL
  CREATINE PHOSPHOKINASE: 238 u/L
  CREATININE: 0.23 mg/dL
  GLUCOSE: 187.33 mg/dL
  LACTATE DEHYDROGENASE: 153.33 u/L
  LIPASE: 11 u/L
  PHOSPHORUS: 11.87 mg/dL
  POTASSIUM: 5.74 MEQ/L
  SODIUM: 144.4 MEQ/L
  TOTAL BILIRUBIN: 0.2 mg/dL
  TOTAL PROTEIN: 5.83 G/DL
  URIC ACID: 1.6 mg/dL
